Holding throughout (format): in vivo
The subject of assay [1] is diamondback moths (Plutella xylostella). The experiment in a line: Test Example 1: cabbage foliar spray, diamondback moth larvae, controlling value. To be noted: 120 h, flowable formulation, 20 mL/cup on cabbage, third-instar larvae, after 5 days; for pest or weed control at 500 ppm: 500 ppm active ingredient; for pest or weed control at 200 ppm: 200 ppm active ingredient. As to the method: Thus, test spray solutions were prepared. On the other hand, cabbage was planted in a polyethylene cup, and grown until the third true leaf or the fourth true leaf was developed. The test spray solution as described above was sprayed in an amount of 20 mL/cup on the cabbage. After the spray solution on the cabbage was dried, 10 third-instar larvae of diamondback moths (Plutella xylostella) were placed on the cabbage. After 5 days, the number of diamondback moths was counted, and the controlling value was calculated by the following equation. Controlling value(%)={1−(Cb×Tai)/(Cai×Tb))×100 wherein Cb: the number of worms in an untreated group before treatment; Cai: the number of worms in an untreated group on observation; Tb: the number of worms in a treated group before treatment; Tai: the number of worms in a treated group on observation.

The test system of assay [2] is yellow citrus thrips (Franklinella occidentalis). Description: Test Example 5: cucumber leaf spray, yellow citrus thrips larvae, controlling value. To be noted: 168 h, flowable formulation, 20 mL/cup on cucumber, cut first true leaf, 20 larvae, leaf area damaged, seven days after spraying; for pest or weed control at 500 ppm: 500 ppm active ingredient; for pest or weed control at 200 ppm: 200 ppm active ingredient. The method, then: Thus, test spray solutions were prepared. On the other hand, cucumber was planted in a polyethylene cup, and was grown until the first true leaf was developed. The test spray solution as described above was sprayed in an amount of 20 mL/cup on the cucumber. After the spray solution on the cucumber was dried, the first true leaf was cut and then placed on a filter paper (diameter: 70 mm) containing water in a polyethylene cup (diameter: 110 mm). On the cucumber leaf, 20 larvae of yellow citrus thrips ([…] occidentalis) were released, and the polyethylene cup was capped. Seven days after spraying, the percentage of leaf area damaged by the insect was examined and a controlling value was calculated by the following equation. Controlling value(%)={1-(Cb×Tai)/(Cai×Tb))×100

The subject of assay [3] is summer fruit tortrix (Adoxophyes orana fasciata). Description: Test Example 4: apple seedling spray, summer fruit tortrix larvae, controlling value. To be noted: 168 h, flowable formulation, 20 mL on apple seedling, first-instar larvae, seven days after spraying; for pest or weed control at 500 ppm: 500 ppm active ingredient; for pest or weed control at 200 ppm: 200 ppm active ingredient. The method, then: Thus, test spray solutions were prepared. On the other hand, 20 mL of the test spray solution as described above was sprayed to an apple seedling (28 day-old seeding; tree height: about 15 cm) planted in a plastic cup. The apple seedling was air-dried to such an extent that the spray solution sprayed on the apple seedling was dried, and about 30 first-instar larvae of summer fruit tortrix (Adoxophyes orana fasciata) were released. Seven days after spraying, the number of worms surviving on the apple seedling was counted, and a controlling value was calculated by the following equation. Controlling value(%)={1−(Cb×Tai)/(Cai×Tb))×100

For assay [4], the system named is cotton aphids (Aphis gossypii). Description: Test Example 2: cucumber foliar spray, cotton aphids, controlling value. To be noted: 144 h, flowable formulation, 20 mL/cup on cucumber, six days after spraying; for pest or weed control at 500 ppm: 500 ppm active ingredient; for pest or weed control at 200 ppm: 200 ppm active ingredient. As to the method:
Thus, test spray solutions were prepared. On the other hand, cucumber was planted in a polyethylene cup, and was grown until the first true leaf was developed. About 30 cotton aphids (Aphis gossypii) were placed on the cucumber. One day after, the test spray solution as described above was sprayed in an amount of 20 mL/cup on the cucumber. Six days after spraying, the number of cotton aphids was counted, and a controlling value was calculated by the following equation. Controlling value(%)={1−(Cb×Tai)/(Cai×Tb))×100

For assay [5], the system named is common cutworm (Spodoptera litura). The experiment in a line: Test Example 3: cabbage foliar spray, common cutworm larvae, controlling value. As to conditions: 96 h, flowable formulation, 20 mL/cup on cabbage, fourth-instar larvae, after 4 days; for pest or weed control at 500 ppm: 500 ppm active ingredient; for pest or weed control at 200 ppm: 200 ppm active ingredient. As to the method:
Thus, test spray solutions were prepared. On the other hand, cabbage was planted in a polyethylene cup, and grown until the third true leaf or the fourth true leaf was developed. The test spray solution as described above was sprayed in an amount of 20 mL/cup on the cabbage. After the spray solution sprayed on the cabbage was dried, 10 fourth-instar larvae of common cutworm (Spodoptera litura) were placed on the cabbage. After 4 days, the number of common cutworm surviving on the cabbage leaves was counted, and a controlling value was calculated by the following equation. Controlling value(%)={1−(Cb×Tai)/(Cai×Tb))×100

Where only a bound is given, the exact number is not on record here.

Broadly, the pest or weed control is the degree to which the test organism was suppressed or injured, in per cent. A low value points to weak suppression.

As for `CCN(C(=O)c1cc(Br)cc(Br)c1NC(=O)c1cc(Br)nn1-c1ncccc1Cl)N(CC#N)C(=O)OC` [1-1], the pest or weed control at 500 ppm is 100% in assay [1]; 100% in assay [2]; 100% in assay [3]; no less than 90% in assay [4]; no less than 80% in assay [5].

Turning to `COC(=O)N(NC(=O)c1cc(Br)cc(Br)c1NC(=O)c1cc(Br)nn1-c1ncccc1Cl)c1ccccn1` [1-5], the pest or weed control at 500 ppm in assay [1] is 100%; in assay [2] it was 100%; in assay [3], 100%; in assay [4], no less than 90%; in assay [5] it was no less than 80%.

As to `COC(=O)N(NC(=O)c1cc(Cl)cc(C)c1NC(=O)c1cc(Br)nn1-c1ncccc1Cl)c1ccccn1` [1-6], the pest or weed control at 500 ppm was 100% in assay [1]; 100% in assay [2]; 100% in assay [3]; no less than 90% in assay [4]; no less than 80% in assay [5].

Regarding `C=CCN(NC(=O)OC)C(=O)c1cc(Br)cc(Br)c1NC(=O)c1cc(Br)nn1-c1ncccc1Cl` [1-7], the pest or weed control at 500 ppm in assay [1] was 100%; in assay [2], 100%; in assay [3] it was 100%; in assay [4], no less than 90%; in assay [5] it was no less than 80%.

Take `C=CCN(NC(=O)c1cc(Br)cc(Br)c1NC(=O)c1cc(Br)nn1-c1ncccc1Cl)C(=O)OC` [1-8]: the pest or weed control at 500 ppm in assay [1] is 100%; in assay [2] it was 100%; in assay [3] it was 100%; in assay [4], no less than 90%; in assay [5] it was no less than 80%.

Regarding `C=CCN(NC(=O)OC)C(=O)c1cc(Cl)cc(Cl)c1NC(=O)c1cc(Br)nn1-c1ncccc1Cl` [1-9], the pest or weed control at 500 ppm in assay [1] is 100%; in assay [2], 100%; in assay [3], 100%; in assay [4] it was no less than 90%; in assay [5], no less than 80%.

Regarding `C=CCN(NC(=O)c1cc(Cl)cc(Cl)c1NC(=O)c1cc(Br)nn1-c1ncccc1Cl)C(=O)OC` [1-10], the pest or weed control at 500 ppm is 100% in assay [1]; 100% in assay [2]; 100% in assay [3]; no less than 90% in assay [4]; no less than 80% in assay [5].

As for `C=CCN(NC(=O)OC)C(=O)c1cc(Cl)cc(C)c1NC(=O)c1cc(Br)nn1-c1ncccc1Cl` [1-11], the pest or weed control at 200 ppm in assay [1] was 100%; in assay [3] it was 100%; in assay [4] it was no less than 90%; in assay [5], no less than 80%.

Take `C=CCN(NC(=O)c1cc(Cl)cc(C)c1NC(=O)c1cc(Br)nn1-c1ncccc1Cl)C(=O)OC` [1-12]: the pest or weed control at 500 ppm was 100% in assay [1]; 100% in assay [2]; 100% in assay [3]; no less than 90% in assay [4]; no less than 80% in assay [5].

Regarding `C#CCN(NC(=O)OC)C(=O)c1cc(Br)cc(Br)c1NC(=O)c1cc(Br)nn1-c1ncccc1Cl` [1-31], the pest or weed control at 200 ppm in assay [1] was 100%; in assay [2], 100%; in assay [3], 100%; in assay [4] it was no less than 90%; in assay [5], no less than 80%.

`C#CCN(NC(=O)c1cc(Br)cc(Br)c1NC(=O)c1cc(Br)nn1-c1ncccc1Cl)C(=O)OC` [1-32]: the pest or weed control at 200 ppm in assay [1] was 100%; in assay [2], 100%; in assay [3] it was 100%; in assay [4], no less than 90%; in assay [5], no less than 80%.

Regarding `COC(=O)NN(Cc1ccccc1)C(=O)c1cc(Cl)cc(C)c1NC(=O)c1cc(Br)nn1-c1ncccc1Cl` [1-57], the pest or weed control at 500 ppm in assay [1] was 100%; in assay [2] it was 100%; in assay [4] it was no less than 90%; in assay [5], no less than 80%.

As to `COC(=O)N(Cc1ccccc1)NC(=O)c1cc(Cl)cc(C)c1NC(=O)c1cc(Br)nn1-c1ncccc1Cl` [1-58], the pest or weed control at 500 ppm is 100% in assay [1], 100% in assay [2], no less than 90% in assay [4] and no less than 80% in assay [5].

With `COC(=O)N(NC(=O)c1cc(Br)cc(Br)c1NC(=O)c1cc(Br)nn1-c1ncccc1Cl)C1CCCCC1` [1-59], the pest or weed control at 500 ppm in assay [1] was 100%; in assay [4], no less than 90%; in assay [5], no less than 80%.

`COC(=O)N(NC(=O)c1cc(Cl)cc(C)c1NC(=O)c1cc(Br)nn1-c1ncccc1Cl)C1CCCCC1` [1-60]: the pest or weed control at 500 ppm was 100% in assay [1], 100% in assay [3] and no less than 80% in assay [5].

For the compound `COC(=O)NN(CCO)C(=O)c1cc(Br)cc(Br)c1NC(=O)c1cc(Br)nn1-c1ncccc1Cl` [1-61], the pest or weed control at 500 ppm in assay [1] is 100%; in assay [2], 100%; in assay [4], no less than 90%; in assay [5] it was no less than 80%.

With `COC(=O)NN(CC=C(Cl)Cl)C(=O)c1cc(Br)cc(Br)c1NC(=O)c1cc(Br)nn1-c1ncccc1Cl` [1-63], the pest or weed control at 500 ppm was 100% in assay [1]; 100% in assay [2]; 100% in assay [3]; no less than 90% in assay [4]; no less than 80% in assay [5].

On to `COC(=O)N(CC=C(Cl)Cl)NC(=O)c1cc(Br)cc(Br)c1NC(=O)c1cc(Br)nn1-c1ncccc1Cl` [1-64], for which the pest or weed control at 500 ppm is 100% in assay [1]; 100% in assay [2]; 100% in assay [3]; no less than 90% in assay [4]; no less than 80% in assay [5].

Values taken from patent US20100048640A1, “HYDRAZIDE COMPOUND AND HARMFUL ARTHROPOD-CONTROLLING AGENT CONTAINING THE SAME” (Sumitomo Chemical Company, Limited, priority 2007, published 2010).
